In patent US7598234B2, “Steroid derived antibiotics” (Brigham Young University, priority 1998, dated 2009):
Values after ≈ are worked out from the molar mass of the structure shown.

How the values were obtained:
[1] = test system: Gram-negative bacteria; test: Sensitization to erythromycin, ester and amide side chain compounds (Table 14); format: cell-based; details: Table 14; strain not given
Experimental: (§1) Aliquots of 1 mL of the suspension were added to test tubes containing 1 mL TSB and incrementally varied concentrations of cholic acid derivatives and/or erythromycin or novobiocin. In the sensitization experiments, erythromycin or novobiocin were added 15 minutes later than the cholic acid derivatives. The samples were subjected to stationary incubation at 37° C. for 24 hours. Sample turbidity was determined by measuring absorption at 760 nm (HP 8453 UV-Visible Chemstation, Hewlett Packard). Additionally, an alliquot from each of the samples showing no measurable turbidity was subcultured on TSA plates (alliquots were diluted to provide fewer than 300 CFU). Colonies that grew on the subculture after overnight incubation were counted and the number of CFU/mL in the samples were calculated. The calculated values were compared to the number of CFU/mL in the original inoculum.
(§2) Ability to permeabilize outer membrane: Compounds 11, 106, and 108-114 (FIG. 1) were tested for antibiotic activity. They were also tested for the ability to permeabilize the outer membrane of Gram-negative bacteria, causing sensitization to hydrophobic antibiotics that cannot cross the outer membrane. The permeabilization of the outer membrane was measured using erythromycin and novobiocin.
(§3) Ester and amide side chains: Additional compounds, for example, compounds with amide and ester side chains, were tested.

[2] = test system: E. coli (ATCC 10798); test: MIC and MBC measurement with E. coli (ATCC 10798); format: cell-based, Escherichia coli; details: Table 1, E. coli (ATCC 10798)
Summary of the method: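 OD760 after 24 h static culture at 37° C. in TSB with increasing compound levels gave the inhibitory end point; the bactericidal end point came from overnight TSA subculture of clear tubes, with CFU/mL set against the starting inoculum.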

[3] = test system: E. coli (ATCC 10798); test: Sensitization to erythromycin (concentration lowering the MIC of erythromycin), E. coli (ATCC 10798); format: cell-based, Escherichia coli; details: Table 2, E. coli (ATCC 10798)
[4] = test system: Gram-negative bacteria; test: MIC of ester and amide side chain compounds (Table 14); format: cell-based; details: strain not given
Experimental: as §1, §3

[5] = test system: Gram-negative bacteria; test: Sensitization to novobiocin, ester and amide side chain compounds (Table 14); format: cell-based; details: strain not given
Experimental: as §1, §2, §3

[6] = remark: listed apart in the source
Experimental: (§4) Minimum inhibition concentrations (MIC) and minimum hemolytic concentrations (MHC) were measured as described in Li et al., Antimicrob. Agents. Chemother., 1999, 43, 1347.

[7] = test system: Klebsiella pneumonia ATCC 13883; test: Growth inhibition and FIC with rifampicin, Klebsiella pneumoniae ATCC 13883; format: cell-based
Experimental: (§5) Alternatively, “fractional inhibitory concentration (FIC)” is also useful for determination of synergy between the compounds of the invention, or the compounds in combination with known antibiotics. FICs can be performed by checkerboard titrations of compounds in one dimension of a microtiter plate, and of antibiotics in the other dimension, for example. The FIC is calculated by looking at the impact of one antibiotic on the MIC of the other and vice versa. […] Preferably, an FIC of less than 0.5 is obtained for synergism. As used herein, FIC can be determined as follows:
as §1
(§6) To measure permeabilization, the FIC values for compounds 1, 2, 5, 106, 10, 112, 133, and 134 with erythromycin, novobiocin, and rifampicin were determined. Concentrations of 0.5, 1.0 or 3.0 μg/mL of these antibiotics were used, and the concentrations of the cholic acid derivatives required to inhibit bacterial growth of Gram-negative strains were determined.

[8] = test system: Klebsiella pneumonia ATCC 13883; test: MIC and MBC measurement with Klebsiella pneumoniae ATCC 13883; format: cell-based; details: Klebsiella pneumoniae, ATCC13883, Table 10, read-out: MBC
Text: (§7) General: Microorganisms. Reference strains were purchased from the American Type Culture Collection (Rockville, Md.) or Bactrol disks from Difeo Laboratories (Detroit, Mich.). The following specific ATCC strains were used: 10798 Escherichia coli, 25922 Escherichia coli, 13883 Klebsiella pneumoniae, 27853 Pseudomonas aeruginosa, 14028 Salmonella typhimurium, 29212 Enterococcus faecalis, 25923 Staphylococcus aureus, 19615 Streptococcus pyogenes, and 90028 Candida albicans. Bacterial strains were maintained on Mueller-Hinton agar plates, and Candida albicans was maintained on Sabouraud Dextrose agar plates.
(§8) Tryptic soy broth (TSB) was made by dissolving 27.5 grams of tryptic soy broth without dextrose (DIFCO Laboratories) in 1 liter of deionized water and sterilizing at 121° C. for 15 minutes. Solid agar (TSA) plates were made by dissolving 6.4 grams of tryptic soy broth and 12 grams of agar (purified grade, Fischer Scientific) in 800 mL of deionized water and sterilizing at 121° C. for 20 minutes. Aliquots (20 mL) of the homogeneous solution were then poured in sterile plastic petri dishes (100×15 mm, Fisher Scientific). Solutions of compounds were made by dissolving the HCl salt of the respective compound into an appropriate amount of deionized and sterilized water followed by microfiltration.
as §1

[9] = test system: Salmonella typhimurium ATCC 14028; test: MIC and MBC measurement with Salmonella typhimurium ATCC 14028; format: cell-based; details: Salmonella enterica, Table 10, read-out: MBC
Text: as §7, §8, §1

[10] = test system: Escherichia coli ATCC 25922; test: Growth inhibition and FIC with rifampicin, Escherichia coli ATCC 25922; format: cell-based; details: Table 13, rifampicin (by order) at 0.5, 1.0 or 3.0 μg/mL
Experimental: as §5, §1, §6

[11] = test system: Klebsiella pneumonia ATCC 13883; test: Growth inhibition and FIC with novobiocin, Klebsiella pneumoniae ATCC 13883; format: cell-based; details: Table 12, novobiocin (by order) at 0.5, 1.0 or 3.0 μg/mL
Experimental: as §5, §1, §6

[12] = test system: Pseudomonas aeruginosa (ATCC 27853); test: Sensitization to novobiocin, Pseudomonas aeruginosa (ATCC 27853); format: cell-based; details: Table 12; Pseudomonas aeruginosa ATCC 27853; novobiocin (by order) at 0.5, 1.0 or 3.0 μg/mL
Experimental: as §5
as §1, with “inoculum. […]” for “inoculum.”
as §6

[13] = test system: Salmonella typhimurium ATCC 14028; test: Growth inhibition and FIC with novobiocin, Salmonella typhimurium ATCC 14028; format: cell-based; details: Table 12, novobiocin (by order) at 0.5, 1.0 or 3.0 μg/mL
Experimental: as §5, §1, §6

[14] = test system: Staphylococcus aureus ATCC 25923; test: MIC and MBC measurement with Staphylococcus aureus ATCC 25923; format: cell-based; details: ATCC25923; Table 10; Staphylococcus aureus ATCC 25923; read-out: MIC
Summary of the method: (§9)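 Growth inhibition read as absorbance at 760 nm after 24 h stationary culture at 37 °C in tryptic soy broth containing varied compound levels. Turbidity-free samples were plated on TSA overnight and CFU/mL compared with the starting inoculum for bactericidal endpoint; antibiotic co-additions followed compound by 15 min.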

[15] = test system: E. coli (ATCC 25922); test: Sensitization to erythromycin, E. coli (ATCC 25922); format: cell-based, Escherichia coli; details: Table 11; Escherichia coli ATCC 25922; erythromycin (by order) at 0.5, 1.0 or 3.0 μg/mL
Experimental: FICs can be performed by checkerboard titrations of compounds in one dimension of a microtiter plate, and of antibiotics in the other dimension, for example. The FIC is calculated by looking at the impact of one antibiotic on the MIC of the other and vice versa. […] Preferably, an FIC of less than 0.5 is obtained for synergism. As used herein, FIC can be determined as follows:
as §1
Concentrations of 0.5, 1.0 or 3.0 μg/mL of these antibiotics were used, and the concentrations of the cholic acid derivatives required to inhibit bacterial growth of Gram-negative strains were determined.
as §4

[16] = test system: E. coli (ATCC 25922); test: MIC and MBC measurement with E. coli (ATCC 25922); format: cell-based, Escherichia coli; details: ATCC25922; Table 10; Escherichia coli ATCC 25922; read-out: MBC
Summary of the method: as §9

[17] = test system: Pseudomonas aeruginosa ATCC 27853; test: Growth inhibition and FIC with rifampicin, Pseudomonas aeruginosa ATCC 27853; format: cell-based; details: Table 13; Pseudomonas aeruginosa ATCC 27853^b; rifampicin (by order) at 0.5, 1.0 or 3.0 μg/mL
Experimental: as §5, §1, §6

[18] = test system: Pseudomonas aeruginosa (ATCC 27853); test: Sensitization to erythromycin, Pseudomonas aeruginosa (ATCC 27853); format: cell-based
Summary of the method: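 Sensitization measured by the cholic acid derivative concentration inhibiting growth when combined with 0.5, 1.0 or 3.0 μg/mL erythromycin or novobiocin, antibiotic added 15 min after derivative. Incubation 24 h at 37 °C without shaking in TSB; growth by absorbance at 760 nm with CFU plating of non-turbid tubes; synergy expressed as FIC.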

[19] = test system: Salmonella typhimurium ATCC 14028; test: Growth inhibition and FIC with rifampicin, Salmonella typhimurium ATCC 14028; format: cell-based; details: Table 13; Salmonella typhimurium ATCC 14028^b; rifampicin (by order) at 0.5, 1.0 or 3.0 μg/mL
Experimental: as §5, §1, §6

C[C@H](CCCO)C1CC[C@H]2[C@@H]3[C@H](N)C[C@@H]4C[C@H](N)CC[C@]4(C)[C@H]3C[C@H](N)[C@]12C (stereo partly shown)
melting point: 200 to 202 °C

C[C@H](CCCN(C)Cc1ccccc1)[C@H]1CC[C@H]2[C@@H]3[C@H](OC(=O)CCN)C[C@@H]4C[C@H](OC(=O)CCN)CC[C@]4(C)[C@H]3C[C@H](OC(=O)CCN)[C@]12C.Cl.Cl.Cl.Cl [Compound 7]
a: concentration of cholic acid derivatives required to lower MIC of erythromycin to 1 μg/ML [1]: 3 µg/mL | MIC [2]: 28 µg/mL | MIC: concentration required to lower the MIC of erythromycin from 70 μg/mL to 1 μg/mL [3]: 2.5 µg/mL | MIC [4]: 70 µg/mL | b: concentration of cholic acid derivatives required to lower MIC of novobiocin to 1 μg/ML [5]: 13 µg/mL

C[C@H](CCCO)[C@H]1CC[C@H]2[C@@H]3[C@H](OCCCN)C[C@@H]4C[C@H](OCCCN)CC[C@]4(C)[C@H]3C[C@H](OCCCN)[C@]12C [Compound 10]
MHC [6]: 100 µg/mL | FIC ([7]; Table 13, rifampicin (by order)): 0.030 | concentration required to inhibit bacterial growth with antibiotic ([7]; Table 13, rifampicin (by order) at 0.5, 1.0 or 3.0 μg/mL): 0.16 µg/mL | MBC [8]: 50 µg/mL (≈ 88.4 µM) | MBC ([2]; Escherichia coli, ATCC10798, read-out: MBC): 60 µg/mL (≈ 106 µM) | MBC [9]: > 17 µg/mL | concentration required to inhibit bacterial growth with antibiotic [10]: 0.70 µg/mL | concentration required to inhibit bacterial growth with antibiotic [11]: 0.73 µg/mL | MIC: concentration required to lower the MIC of erythromycin from 70 μg/mL to 1 μg/mL [3]: 2 µg/mL | MBC (with erythromycin) ([3]; erythromycin sensitization): 50 µg/mL | concentration required to inhibit bacterial growth with antibiotic [12]: 5.3 µg/mL | concentration required to inhibit bacterial growth with antibiotic [13]: 1.8 µg/mL | MIC [14]: 2 µg/mL (≈ 3.53 µM) | concentration required to inhibit bacterial growth with antibiotic [15]: 1.5 µg/mL | MBC [16]: 40 µg/mL (≈ 70.7 µM) | concentration required to inhibit bacterial growth with antibiotic [17]: 0.84 µg/mL | MIC: concentration required to lower the MIC of erythromycin from 240 μg/mL to 5 μg/mL ([18]; Table 7, P. aureginosa (ATCC 27853)): 7 µg/mL | concentration required to inhibit bacterial growth with antibiotic ([18]; Table 11, Pseudomonas aeruginosa ATCC 27853, erythromycin (by order) at 0.5, 1.0 or 3.0 μg/mL): 2.1 µg/mL | concentration required to inhibit bacterial growth with antibiotic [19]: 0.55 µg/mL
